# From paper PMC2535826, “Cross-Species Differential Plasma Protein Binding of MBX-102/JNJ39659100: A Novel PPAR-γ Agonist” (PPAR Research, 2008)
# “And” between values parts separate entries of the source, which are not always exact repeats. Equal values may be shown once. Read-outs that look alike come from different tables or passages of the source.
# Columns and labels:
# rat and human plasma = assay: Competitive equilibrium dialysis, rat versus human plasma; type: in vitro ADME, Sprague-Dawley rat; details: 37°C, n = 5
# Description: (§1) A comparison of the binding to plasma from different species was performed essentially by the method described below. Briefly, [^3H] MBX-102 acid spiked plasma samples were formulated as described above with the exception that pH was not adjusted to 7.4 and the final DMSO concentration was 0.6%. A 1 mL sample of spiked human plasma was applied to one side of the dialysis membrane and 1 mL of spiked animal plasma was applied to the other side. The samples were dialyzed by rotation at 20 rpm for up to 120 hours in a 37°C incubator. The ratio of free drug in plasma was calculated according to the equation: ratio of free drug (animal versus human) = (total cpm in human plasma)/(total cpm in animal plasma).
# [1] = biological target: T1, human PPAR-γ ligand-binding domain (Homo sapiens, UniProt P37231); assay: Lanthascreen TR-FRET NCOR corepressor displacement assay; type: biochemical; details: for IC50: 3 experiments, mean ± SD, read-out: IC50 displacement of NCOR corepressor peptide
# T1 construct: GST-PPARγ-LBD (5 nM), Tb-labeled anti-GST antibody (5 nM); purchased Invitrogen
# T1 sequence (P37231 238-503 limits assumed): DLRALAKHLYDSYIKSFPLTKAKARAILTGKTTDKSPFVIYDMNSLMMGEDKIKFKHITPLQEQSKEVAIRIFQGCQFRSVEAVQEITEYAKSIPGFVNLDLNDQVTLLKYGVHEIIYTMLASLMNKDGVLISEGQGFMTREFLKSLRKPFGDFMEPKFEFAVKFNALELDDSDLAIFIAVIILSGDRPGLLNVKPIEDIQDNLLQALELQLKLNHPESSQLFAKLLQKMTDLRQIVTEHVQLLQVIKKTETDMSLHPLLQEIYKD
# Description: Assays were performed according to the manufacturer’s instructions. […] Life Science, Lowell, Mass, USA). […] The plate was covered and incubated for 4 hours at room temperature. The time resolved fluorescence resonance energy transfer (TR-FRET) signal was measured using a Pherastar fluorescence counter (BMG labtech, Offenburg, Germany). The ratio of the emission intensity of the acceptor (Fluorescein: λ = 520 nm) divided by the emission intensity of the donor (Tb: λ = 490 nm) was then calculated to determine the degree of NCOR binding. Each measurement was performed in quadruplicate.
# [2] = Plasma protein binding by equilibrium dialysis, rat plasma; type: in vitro ADME, Sprague Dawley rats; details: Sprague Dawley, equilibrium dialysis vs PBS, 37°C, read-out: %Protein Binding ± SD (converted)
# Description: Radiolabeled MBX-102 acid was prepared as a 1 mL ethanol solution at a concentration of 50 μM (1 mCi total). […] Final solvent concentrations were 1% of the total volume. Plasma was stored at −20°C. Prior to use, it was thawed and spun at approximately 2000 rpm for 5 minutes to remove any precipitated material. The pH was adjusted to pH 7.4 by careful addition of NaH2PO4. A 1 mL sample of spiked plasma was prepared by direct dilution of [^3H]-MBX-102 acid stock solution into plasma and then added to one side of an equilibrium dialysis chamber. The other chamber was filled with 1 mL of 0.01 M phosphate buffered saline (PBS). The dialysis apparatus was placed in a water bath at 37°C and rotated at 20 rpm. […] Once equilibrium was established, the contents of the cell chambers were removed and analyzed by liquid scintillation counting. The chambers were sampled in triplicate. […] The recovery percentage was found not to vary with MBX-102 acid concentration.
# mouse and human plasma = assay: Competitive equilibrium dialysis, mouse versus human plasma; type: in vitro ADME, CD-1 mouse; details: 37°C, n = 5
# Description: as §1
# [3] = system: human alpha-1-acid glycoprotein; assay: Equilibrium dialysis binding to purified human alpha-1-acid glycoprotein; type: in vitro ADME; details: purified human alpha-1-acid glycoprotein 22.5 μM, data not shown
# Description: Stock solutions of human serum albumin and alpha-1-acid glycoprotein were prepared in PBS buffer. […] The spiked protein solution (175 μL) was added to one side of an equilibrium dialysis chamber, and an equal volume of PBS buffer was added to the other chamber. Dialysis was allowed to reach equilibrium and the binding to protein was determined by liquid scintillation counting of samples from both chambers as described above.
# human serum albumin = biological target: T2, human serum albumin (Homo sapiens, UniProt P02768); assay: Albumin binding by surface plasmon resonance (SPR), HSA; details: for %Bound: converted from KD
# T2 construct: purchased Sigma
# T2 sequence (P02768 25-609): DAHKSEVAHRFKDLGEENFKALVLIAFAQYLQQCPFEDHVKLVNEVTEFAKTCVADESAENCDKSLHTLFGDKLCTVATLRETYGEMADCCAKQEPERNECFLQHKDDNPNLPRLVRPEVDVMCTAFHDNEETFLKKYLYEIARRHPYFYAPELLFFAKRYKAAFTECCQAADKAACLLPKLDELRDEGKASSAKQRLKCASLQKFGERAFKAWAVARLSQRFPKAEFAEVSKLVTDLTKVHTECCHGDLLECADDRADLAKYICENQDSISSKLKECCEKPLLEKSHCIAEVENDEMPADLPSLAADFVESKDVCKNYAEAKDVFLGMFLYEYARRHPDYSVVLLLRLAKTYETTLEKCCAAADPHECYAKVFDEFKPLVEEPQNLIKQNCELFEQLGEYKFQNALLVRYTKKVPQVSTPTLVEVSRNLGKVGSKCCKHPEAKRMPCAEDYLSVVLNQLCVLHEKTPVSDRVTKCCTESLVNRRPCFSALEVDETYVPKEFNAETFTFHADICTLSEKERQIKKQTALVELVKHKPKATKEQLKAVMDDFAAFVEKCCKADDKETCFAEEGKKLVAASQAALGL
# Description: The characterization of the binding of MBX-102 acid against human, mouse, and rat albumin was performed using SPR-based biosensors (Biosensor Tools, Salt Lake City, Utah, USA). The assay methods used to assess the binding of MBX-102 acid to human, mouse, and rat albumins have been described previously. Briefly, each albumin was immobilized onto a CM5 sensor chip using standard amine coupling. Immobilization densities were between 10 000 and 13 000 RU. […] Each of the 16 different concentrations was tested in duplicate. […] All binding data were collected at 37°C. The binding response profile of MBX-102 acid over the three different albumin surfaces was evaluated and the binding constants for the high-affinity site were determined using a two-independent-site model. Conversion from KD to %bound was performed as previously described.
smiles,measurement,setting,value
O=C(O)[C@H](Oc1cccc(C(F)(F)F)c1)c1ccc(Cl)cc1 (stereo in doubt) [MBX-102 acid],Free Fraction Ratio Rat:Human,rat and human plasma; MBX-102 acid 100 μM,2.3 ± 0.6
same,Free Fraction Ratio Rat:Human,rat and human plasma; MBX-102 acid 300 μM,2.3 ± 0.6
same,Free Fraction Ratio Rat:Human,rat and human plasma; MBX-102 acid 700 μM,2.0 ± 0.3
same,Free Fraction Ratio Rat:Human,rat and human plasma; MBX-102 acid 1000 μM,1.8 ± 0.2
same,Free Fraction Ratio Rat:Human,rat and human plasma; MBX-102 acid 1300 μM,1.7 ± 0.2
same,IC50,[1]; 0% serum,11 µM and 10.6 µM
same,IC50,[1]; 10% (v/v) human serum,98.5 ± 6.6 µM
same,IC50,[1]; 40% (v/v) human serum,200 ± 6.4 µM
same,IC50,[1]; 40% (v/v) mouse serum,28.1 ± 2.6 µM
same,IC50,[1]; 40% (v/v) rat serum,57.9 ± 14.2 µM
same,fold shift in the IC50,[1]; 40% human serum versus no serum,≤ 19 fold
same,"FC, IC50 fold change human-to-mouse serum",[1]; 40% serum,7 and 7.17
same,"FC, IC50 fold change human-to-rat serum",[1]; 40% serum,4 and 3.59
same,fraction unbound at 400 µM,"[2]; pH 7.4, MBX-102 acid 400 μM",0.002
same,fraction unbound at 600 µM,"[2]; pH 7.4, MBX-102 acid 600 μM",0.002
same,fraction unbound at 1000 µM,"[2]; pH 7.4, MBX-102 acid 1000 μM",0.003
same,fraction unbound at 1500 µM,"[2]; pH 7.4, MBX-102 acid 1500 μM",0.002
same,fraction unbound at 2000 µM,"[2]; pH 7.4, MBX-102 acid 2000 μM",0.005
same,Free Fraction Ratio Mouse:Human,mouse and human plasma; MBX-102 acid 100 μM,10.5 ± 5.5
same,Free Fraction Ratio Mouse:Human,mouse and human plasma; MBX-102 acid 300 μM,5.9 ± 3.6
same,Free Fraction Ratio Mouse:Human,mouse and human plasma; MBX-102 acid 700 μM,3.7 ± 1.9
same,Free Fraction Ratio Mouse:Human,mouse and human plasma; MBX-102 acid 1000 μM,2.6 ± 1.1
same,Free Fraction Ratio Mouse:Human,mouse and human plasma; MBX-102 acid 1300 μM,2.3 ± 0.7
same,binding to human alpha 1-acid glycoprotein,[3],< 5%
same,%Bound,human serum albumin,> 98%
same,%Bound,human serum albumin; listed as MBX-102,99.1%
same,Kd,"human serum albumin; high-affinity site, two-independent-site model, 37°C, pH 7.4",5.8 µM
